# Laboratory results published in ChEMBL document CHEMBL1201862, “PubChem BioAssay data set” (2004).
# Structures can show the parent of a compound that is named as a salt. Active and inactive are the calls of the source.
# Legend:
# [1] = biological target: T1, Estrogen receptor (Homo sapiens, UniProt P03372);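 also: potency for inhibiting coactivator peptide recruitment to the receptor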
# T1 sequence (P03372 whole entry): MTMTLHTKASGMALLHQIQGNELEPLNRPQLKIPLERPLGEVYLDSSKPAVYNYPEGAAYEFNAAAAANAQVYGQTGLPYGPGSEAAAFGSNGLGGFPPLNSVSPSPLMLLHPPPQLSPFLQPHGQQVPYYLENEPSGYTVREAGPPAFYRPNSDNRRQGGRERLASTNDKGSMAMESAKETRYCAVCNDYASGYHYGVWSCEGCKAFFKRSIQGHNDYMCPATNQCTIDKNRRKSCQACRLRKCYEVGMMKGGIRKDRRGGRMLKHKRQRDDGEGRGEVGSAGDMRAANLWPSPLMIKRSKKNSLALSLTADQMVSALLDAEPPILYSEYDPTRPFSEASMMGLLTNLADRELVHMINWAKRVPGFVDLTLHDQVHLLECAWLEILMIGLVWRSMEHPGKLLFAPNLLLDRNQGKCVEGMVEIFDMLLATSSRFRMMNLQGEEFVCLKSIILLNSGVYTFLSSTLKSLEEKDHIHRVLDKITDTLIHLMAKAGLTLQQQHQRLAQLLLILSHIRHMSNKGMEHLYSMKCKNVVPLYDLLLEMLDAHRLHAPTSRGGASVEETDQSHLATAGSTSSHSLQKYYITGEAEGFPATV
# [2] = system: Vero; experiment: viability of Vero cells under compound – cytotoxicity control for flavivirus capping enzyme inhibitors (AID 588742); type: functional; conditions: Chlorocebus sabaeus
# [3] = biological target: Genome polyprotein (dengue virus type 2, UniProt P29990); experiment: flavivirus cap methylation enzyme inhibition – biochemical, confirmation dose response, primary screen (AID 588689); type: functional
# [4] = biological target: Ras and Rab interactor 1/Tyrosine-protein kinase ABL1 (Homo sapiens, UniProt P00519+Q13671); type: functional;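 also: biochemical TR-FRET dose-response test measuring inhibition of binding between Rin1 and Abl proteins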
# [5] = biological target: Mu-type opioid receptor (Homo sapiens, UniProt P35372); type: functional, cell-based;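 also: U2OS cells with beta-arrestin recruitment to OPRM1 by beta-gal complementation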
# [6] = biological target: 5-hydroxytryptamine receptor 2A (Mus musculus, UniProt P35363); type: functional, cell-based;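 also: CHO-K1 cells with tagged receptor and beta-arrestin; agonist potency measured as compound-induced activation of the receptor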
# [7] = biological target: T2, Sentrin-specific protease 6 (Homo sapiens, UniProt Q9GZR1); type: functional;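 also: Luminescence-based dose-response confirmatory assay of SENP6 inhibition, following up an ultra-high-throughput screen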
# T2 sequence (Q9GZR1 whole entry): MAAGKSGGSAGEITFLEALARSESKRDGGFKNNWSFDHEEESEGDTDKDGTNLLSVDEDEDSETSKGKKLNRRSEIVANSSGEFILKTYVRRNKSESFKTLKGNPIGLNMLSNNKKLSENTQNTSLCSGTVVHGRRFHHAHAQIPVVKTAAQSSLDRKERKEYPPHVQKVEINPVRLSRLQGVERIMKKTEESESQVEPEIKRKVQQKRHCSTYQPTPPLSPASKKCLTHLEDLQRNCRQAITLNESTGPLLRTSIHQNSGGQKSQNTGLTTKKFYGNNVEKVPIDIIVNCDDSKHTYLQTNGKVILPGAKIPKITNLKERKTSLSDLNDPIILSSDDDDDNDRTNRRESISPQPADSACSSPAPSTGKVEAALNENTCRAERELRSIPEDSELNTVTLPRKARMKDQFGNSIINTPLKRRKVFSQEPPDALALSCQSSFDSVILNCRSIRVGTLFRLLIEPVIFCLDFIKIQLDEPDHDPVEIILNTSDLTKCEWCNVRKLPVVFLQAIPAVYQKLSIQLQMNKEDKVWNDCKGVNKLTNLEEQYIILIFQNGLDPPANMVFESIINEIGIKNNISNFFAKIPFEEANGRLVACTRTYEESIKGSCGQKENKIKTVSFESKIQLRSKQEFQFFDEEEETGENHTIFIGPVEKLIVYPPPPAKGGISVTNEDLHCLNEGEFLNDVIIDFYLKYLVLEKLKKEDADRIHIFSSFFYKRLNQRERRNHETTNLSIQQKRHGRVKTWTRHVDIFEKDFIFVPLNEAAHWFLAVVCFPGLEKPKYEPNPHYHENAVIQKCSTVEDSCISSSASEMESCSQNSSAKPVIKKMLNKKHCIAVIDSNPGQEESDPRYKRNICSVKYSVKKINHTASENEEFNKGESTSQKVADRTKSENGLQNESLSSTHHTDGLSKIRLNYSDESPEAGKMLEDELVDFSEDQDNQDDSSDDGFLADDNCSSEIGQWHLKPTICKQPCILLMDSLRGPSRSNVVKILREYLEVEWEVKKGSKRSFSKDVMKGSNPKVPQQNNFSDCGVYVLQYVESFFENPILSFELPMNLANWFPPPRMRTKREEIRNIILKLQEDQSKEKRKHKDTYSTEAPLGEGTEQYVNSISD
# [8] = biological target: T3, Caspase-3 (Homo sapiens, UniProt P42574); type: functional;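 also: Dose-response selectivity test against caspase-3 for candidate inhibitors of sentrin-specific proteases (SENPs)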
# T3 sequence (P42574 whole entry): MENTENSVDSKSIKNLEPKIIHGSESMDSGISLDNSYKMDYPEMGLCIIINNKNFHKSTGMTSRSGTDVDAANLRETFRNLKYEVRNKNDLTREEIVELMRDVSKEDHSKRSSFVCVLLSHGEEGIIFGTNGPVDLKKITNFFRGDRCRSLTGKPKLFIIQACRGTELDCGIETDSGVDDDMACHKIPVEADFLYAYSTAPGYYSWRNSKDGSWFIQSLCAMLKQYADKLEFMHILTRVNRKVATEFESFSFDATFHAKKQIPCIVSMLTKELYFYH
# [9] = biological target: T4, Sentrin-specific protease 8 (Homo sapiens, UniProt Q96LD8); type: functional
# T4 sequence (Q96LD8 whole entry): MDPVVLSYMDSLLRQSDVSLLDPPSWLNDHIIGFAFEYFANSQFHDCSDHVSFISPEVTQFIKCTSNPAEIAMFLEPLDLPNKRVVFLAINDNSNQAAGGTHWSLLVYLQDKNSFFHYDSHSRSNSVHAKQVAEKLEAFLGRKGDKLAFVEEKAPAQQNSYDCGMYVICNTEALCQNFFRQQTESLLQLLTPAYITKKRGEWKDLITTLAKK
# [10] = THP-1 cell cytotoxicity, dose response, cytotoxicity control for non-replicating M. tuberculosis project (AID 489025); type: functional
# [11] = HepG2 cell cytotoxicity, dose response, cytotoxicity control for non-replicating M. tuberculosis project (AID 489018); type: functional; conditions: Mycobacterium tuberculosis
# [12] = biological target: T5, Sentrin-specific protease 7 (Homo sapiens, UniProt Q9BQF6); type: functional;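 also: Luminescence-based dose-response confirmation of ultra-high-throughput screening hits, measuring inhibition of SENP7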
# T5 sequence (Q9BQF6 whole entry): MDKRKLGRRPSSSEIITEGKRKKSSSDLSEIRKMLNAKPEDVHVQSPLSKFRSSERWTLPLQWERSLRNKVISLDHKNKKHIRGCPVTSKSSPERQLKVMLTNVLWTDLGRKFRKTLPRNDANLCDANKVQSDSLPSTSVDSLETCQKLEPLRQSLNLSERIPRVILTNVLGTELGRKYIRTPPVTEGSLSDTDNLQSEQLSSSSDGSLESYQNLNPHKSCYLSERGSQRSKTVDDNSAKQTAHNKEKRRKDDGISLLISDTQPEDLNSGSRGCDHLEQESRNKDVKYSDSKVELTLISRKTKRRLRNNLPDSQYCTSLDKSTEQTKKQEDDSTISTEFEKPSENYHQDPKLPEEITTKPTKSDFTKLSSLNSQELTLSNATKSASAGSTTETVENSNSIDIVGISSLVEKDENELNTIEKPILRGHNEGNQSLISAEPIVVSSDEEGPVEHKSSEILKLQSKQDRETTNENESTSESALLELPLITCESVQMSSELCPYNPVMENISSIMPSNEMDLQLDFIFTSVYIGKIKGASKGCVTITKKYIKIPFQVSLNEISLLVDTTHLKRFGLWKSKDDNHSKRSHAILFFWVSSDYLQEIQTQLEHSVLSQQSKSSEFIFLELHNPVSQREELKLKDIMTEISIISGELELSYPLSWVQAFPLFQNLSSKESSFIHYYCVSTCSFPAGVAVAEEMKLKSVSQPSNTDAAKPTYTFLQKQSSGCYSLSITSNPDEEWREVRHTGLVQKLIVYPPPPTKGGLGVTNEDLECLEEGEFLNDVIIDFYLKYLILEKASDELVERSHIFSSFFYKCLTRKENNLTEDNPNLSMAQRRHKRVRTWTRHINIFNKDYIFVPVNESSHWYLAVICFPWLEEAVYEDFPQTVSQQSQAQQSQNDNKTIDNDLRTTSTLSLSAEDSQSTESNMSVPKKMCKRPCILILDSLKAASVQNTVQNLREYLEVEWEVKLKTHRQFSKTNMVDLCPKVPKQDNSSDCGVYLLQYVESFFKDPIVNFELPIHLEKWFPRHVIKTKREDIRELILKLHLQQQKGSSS
# [13] = biological target: T6, Protein Tat (Human immunodeficiency virus type 1 group M subtype B (isolate HXB2)(HIV-1), UniProt P04608); type: functional;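 also: tat binding to TAR RNA read out by fluorescence polarization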
# T6 sequence (P04608 whole entry): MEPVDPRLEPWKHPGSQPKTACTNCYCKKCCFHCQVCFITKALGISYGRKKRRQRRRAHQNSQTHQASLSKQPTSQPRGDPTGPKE
# [14] = biological target: Nonstructural protein 1 (Influenza A virus, UniProt Q194T2); type: functional, Influenza A virus (A/California/07/2009(H1N1))
# [15] = viability loss in THP-1 monocytes – THP-1 cells, cytotoxicity control for Vif-APOBEC3G degradation inhibitor project, dose response (AID 1117359); type: functional; conditions: THP-1
# [16] = biological target: Heat shock protein HSP 90-alpha (Homo sapiens, UniProt P07900); type: functional, organism-based
# [17] = system: Vero; experiment: cells; type: functional; conditions: Chlorocebus sabaeus
# [18] = reduction of Shn3 3'UTR-driven luciferase in osteoblasts – cell-based, Clone20 osteoblasts, firefly luciferase, cherry-picked, dose response (AID 624132); type: functional;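 also: firefly luciferase luminescence from reporter carrying the Shn3 3'UTR in osteoblasts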
# [19] = non-specific 3'UTR reporter inhibition in Clone20-Shn3RL – cell-based, Renilla luciferase, cherry-picked, counter-screen for Shn3 inhibitor project, dose response (AID 624133); type: functional
# [20] = loss of viability in HepG2 cells – cell-based, CellTiter-Glo, cherry-picked, cytotoxicity control for Shn3 inhibitor project, dose response (AID 624134); type: functional
# [21] = biological target: Paired box protein Pax-8 (Homo sapiens, UniProt Q06710); experiment: PAX8 transcriptional activity inhibition in RMG-I – RMG-I cells, luciferase, cherry-pick, dose response (AID 687027); type: functional, cell-based;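 also: luciferase reporter driven by Pax8 target thyroperoxidase promoter measured by SteadyGlo luminescence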
# [22] = biological target: T4, Sentrin-specific protease 8; type: functional; remark: listed apart in the source
# [23] = biological target: T4, Sentrin-specific protease 8; type: functional; remark: listed apart in the source
# [24] = biological target: T7, DNA repair protein RAD52 homolog (Homo sapiens, UniProt P43351); type: functional, biochemical
# T7 sequence (P43351 whole entry): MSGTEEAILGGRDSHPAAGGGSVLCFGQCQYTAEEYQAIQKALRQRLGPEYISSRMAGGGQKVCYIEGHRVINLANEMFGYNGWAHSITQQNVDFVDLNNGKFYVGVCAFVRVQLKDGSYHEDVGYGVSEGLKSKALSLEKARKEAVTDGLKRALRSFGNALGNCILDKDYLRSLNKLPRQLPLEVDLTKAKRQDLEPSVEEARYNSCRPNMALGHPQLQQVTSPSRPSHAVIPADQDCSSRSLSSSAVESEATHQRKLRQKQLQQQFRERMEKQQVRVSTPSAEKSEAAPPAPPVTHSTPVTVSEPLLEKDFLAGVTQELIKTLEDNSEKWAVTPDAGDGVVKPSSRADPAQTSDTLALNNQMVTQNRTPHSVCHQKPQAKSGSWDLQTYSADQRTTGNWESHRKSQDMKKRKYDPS
# Chain of 5-hydroxytryptamine receptor 2A (P35363 whole entry): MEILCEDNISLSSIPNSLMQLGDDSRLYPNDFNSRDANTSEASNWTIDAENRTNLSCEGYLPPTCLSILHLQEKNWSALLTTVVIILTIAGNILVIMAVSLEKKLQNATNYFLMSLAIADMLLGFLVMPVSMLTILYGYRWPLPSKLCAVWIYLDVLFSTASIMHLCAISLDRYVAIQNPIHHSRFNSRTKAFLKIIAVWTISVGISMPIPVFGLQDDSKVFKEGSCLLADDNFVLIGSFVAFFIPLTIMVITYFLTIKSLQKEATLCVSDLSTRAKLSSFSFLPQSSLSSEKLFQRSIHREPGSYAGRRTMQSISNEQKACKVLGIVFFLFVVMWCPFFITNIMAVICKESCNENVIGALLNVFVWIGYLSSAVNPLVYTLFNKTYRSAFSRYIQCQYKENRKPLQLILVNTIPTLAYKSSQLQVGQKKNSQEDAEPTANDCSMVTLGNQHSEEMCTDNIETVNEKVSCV
# Chain of Mu-type opioid receptor (P35372 whole entry): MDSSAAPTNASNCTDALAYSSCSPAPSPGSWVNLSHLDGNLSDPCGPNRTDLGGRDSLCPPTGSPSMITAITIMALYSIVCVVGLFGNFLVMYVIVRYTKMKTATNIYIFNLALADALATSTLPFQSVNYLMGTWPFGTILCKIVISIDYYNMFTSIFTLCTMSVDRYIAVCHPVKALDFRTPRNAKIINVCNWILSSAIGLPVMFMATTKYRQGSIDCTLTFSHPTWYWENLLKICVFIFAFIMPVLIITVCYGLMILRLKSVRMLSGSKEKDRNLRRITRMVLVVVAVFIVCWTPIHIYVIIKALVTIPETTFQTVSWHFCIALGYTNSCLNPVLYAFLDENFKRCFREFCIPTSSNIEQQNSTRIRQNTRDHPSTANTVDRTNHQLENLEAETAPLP
# Chain of Genome polyprotein (P29990 2492-3391 limits assumed): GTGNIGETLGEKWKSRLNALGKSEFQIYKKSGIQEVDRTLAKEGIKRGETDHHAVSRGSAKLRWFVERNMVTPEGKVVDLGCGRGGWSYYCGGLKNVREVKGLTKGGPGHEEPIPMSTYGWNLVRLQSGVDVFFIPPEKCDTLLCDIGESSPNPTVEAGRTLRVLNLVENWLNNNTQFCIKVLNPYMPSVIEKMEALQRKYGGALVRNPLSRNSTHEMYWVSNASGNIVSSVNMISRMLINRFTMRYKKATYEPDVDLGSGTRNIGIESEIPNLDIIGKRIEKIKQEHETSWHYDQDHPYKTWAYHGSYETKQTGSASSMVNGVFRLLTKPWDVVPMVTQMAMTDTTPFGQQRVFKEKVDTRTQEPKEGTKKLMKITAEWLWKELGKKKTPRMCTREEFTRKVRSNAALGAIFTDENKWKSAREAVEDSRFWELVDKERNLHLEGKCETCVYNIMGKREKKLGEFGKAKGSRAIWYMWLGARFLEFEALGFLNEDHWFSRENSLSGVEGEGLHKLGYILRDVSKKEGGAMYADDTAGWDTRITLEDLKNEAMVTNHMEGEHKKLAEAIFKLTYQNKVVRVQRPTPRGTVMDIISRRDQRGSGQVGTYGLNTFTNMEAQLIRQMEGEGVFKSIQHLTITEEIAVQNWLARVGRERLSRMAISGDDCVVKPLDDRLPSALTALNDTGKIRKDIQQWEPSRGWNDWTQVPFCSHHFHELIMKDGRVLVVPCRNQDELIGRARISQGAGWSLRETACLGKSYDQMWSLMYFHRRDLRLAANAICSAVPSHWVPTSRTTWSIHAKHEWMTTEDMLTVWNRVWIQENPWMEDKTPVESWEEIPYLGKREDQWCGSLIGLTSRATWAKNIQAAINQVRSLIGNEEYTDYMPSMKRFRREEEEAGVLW
# Chain of Ras and Rab interactor 1/Tyrosine-protein kinase ABL1 (P00519 whole entry): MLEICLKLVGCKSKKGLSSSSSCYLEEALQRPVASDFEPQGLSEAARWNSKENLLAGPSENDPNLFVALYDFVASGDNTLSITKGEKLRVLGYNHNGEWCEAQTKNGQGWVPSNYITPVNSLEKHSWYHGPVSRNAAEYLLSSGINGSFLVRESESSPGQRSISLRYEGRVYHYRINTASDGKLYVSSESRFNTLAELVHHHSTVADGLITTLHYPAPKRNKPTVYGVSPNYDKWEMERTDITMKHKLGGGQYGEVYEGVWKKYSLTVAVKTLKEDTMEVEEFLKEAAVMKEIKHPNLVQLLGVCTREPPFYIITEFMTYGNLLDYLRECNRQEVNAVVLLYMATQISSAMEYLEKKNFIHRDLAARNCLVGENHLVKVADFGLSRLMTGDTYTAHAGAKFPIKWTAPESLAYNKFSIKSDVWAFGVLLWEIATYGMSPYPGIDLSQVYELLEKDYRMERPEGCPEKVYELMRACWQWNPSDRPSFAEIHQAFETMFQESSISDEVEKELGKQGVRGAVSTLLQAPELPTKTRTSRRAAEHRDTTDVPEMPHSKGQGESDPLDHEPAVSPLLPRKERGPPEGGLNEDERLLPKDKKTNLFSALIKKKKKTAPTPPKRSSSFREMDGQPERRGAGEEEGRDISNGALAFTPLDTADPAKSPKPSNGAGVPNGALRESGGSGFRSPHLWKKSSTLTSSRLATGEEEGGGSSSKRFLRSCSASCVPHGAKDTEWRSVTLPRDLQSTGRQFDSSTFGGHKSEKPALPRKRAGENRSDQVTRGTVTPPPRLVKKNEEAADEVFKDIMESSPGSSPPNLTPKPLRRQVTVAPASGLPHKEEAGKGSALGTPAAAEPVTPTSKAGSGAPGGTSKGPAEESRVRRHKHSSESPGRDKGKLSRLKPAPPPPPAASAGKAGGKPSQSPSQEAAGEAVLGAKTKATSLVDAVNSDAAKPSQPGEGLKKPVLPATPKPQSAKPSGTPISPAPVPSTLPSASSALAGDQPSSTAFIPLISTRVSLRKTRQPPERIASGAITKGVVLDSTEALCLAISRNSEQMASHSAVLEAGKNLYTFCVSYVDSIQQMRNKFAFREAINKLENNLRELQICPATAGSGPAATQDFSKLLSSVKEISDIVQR
# Chain of Ras and Rab interactor 1/Tyrosine-protein kinase ABL1 (Q13671 whole entry): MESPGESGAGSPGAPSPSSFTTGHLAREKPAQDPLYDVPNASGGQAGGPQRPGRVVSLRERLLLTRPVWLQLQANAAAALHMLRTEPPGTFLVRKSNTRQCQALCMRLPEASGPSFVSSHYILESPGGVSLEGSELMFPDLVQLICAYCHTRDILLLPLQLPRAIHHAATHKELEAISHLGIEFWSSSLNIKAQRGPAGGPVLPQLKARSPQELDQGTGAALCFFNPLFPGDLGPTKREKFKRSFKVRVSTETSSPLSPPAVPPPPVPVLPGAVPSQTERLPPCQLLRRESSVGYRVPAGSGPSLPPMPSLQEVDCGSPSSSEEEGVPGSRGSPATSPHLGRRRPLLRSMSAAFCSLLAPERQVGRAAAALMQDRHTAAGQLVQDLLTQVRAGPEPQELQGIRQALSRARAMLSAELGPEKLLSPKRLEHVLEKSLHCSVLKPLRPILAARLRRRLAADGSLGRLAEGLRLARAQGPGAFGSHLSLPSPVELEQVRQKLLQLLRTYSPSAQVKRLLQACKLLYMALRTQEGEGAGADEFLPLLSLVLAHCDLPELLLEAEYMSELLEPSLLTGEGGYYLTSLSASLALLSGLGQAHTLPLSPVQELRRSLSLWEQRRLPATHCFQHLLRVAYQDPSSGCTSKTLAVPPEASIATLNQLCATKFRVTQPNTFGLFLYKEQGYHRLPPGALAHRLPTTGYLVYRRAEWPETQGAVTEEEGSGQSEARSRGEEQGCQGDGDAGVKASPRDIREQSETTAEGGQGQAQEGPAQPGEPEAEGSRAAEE
# Chain of Nonstructural protein 1 (Q194T2 whole entry): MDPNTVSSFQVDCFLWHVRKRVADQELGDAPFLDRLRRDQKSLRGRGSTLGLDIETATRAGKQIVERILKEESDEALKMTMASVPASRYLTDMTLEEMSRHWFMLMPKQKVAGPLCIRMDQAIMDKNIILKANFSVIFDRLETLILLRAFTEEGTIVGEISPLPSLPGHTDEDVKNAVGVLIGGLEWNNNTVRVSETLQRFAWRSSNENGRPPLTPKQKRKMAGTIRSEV
# Chain of Paired box protein Pax-8 (Q06710 whole entry): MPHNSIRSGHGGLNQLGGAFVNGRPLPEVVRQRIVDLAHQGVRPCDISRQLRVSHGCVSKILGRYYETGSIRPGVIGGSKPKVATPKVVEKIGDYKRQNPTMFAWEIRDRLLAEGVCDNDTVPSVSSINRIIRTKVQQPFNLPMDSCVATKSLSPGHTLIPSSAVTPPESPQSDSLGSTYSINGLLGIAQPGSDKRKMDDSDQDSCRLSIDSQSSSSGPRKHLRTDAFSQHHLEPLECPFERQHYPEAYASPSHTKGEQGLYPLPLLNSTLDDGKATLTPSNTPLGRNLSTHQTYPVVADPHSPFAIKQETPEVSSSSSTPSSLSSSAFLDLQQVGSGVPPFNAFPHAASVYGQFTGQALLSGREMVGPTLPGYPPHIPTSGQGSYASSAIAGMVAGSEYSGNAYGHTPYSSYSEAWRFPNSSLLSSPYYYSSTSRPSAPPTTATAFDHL
structure (smiles),measurement,setting,value
Cc1cc(C)c2nc(-c3ccccn3)cc(C(=O)NCc3ccco3)c2c1,IC50,[1],> 50 µM (not active)
same,CC50,[2],> 40 µM (active)
Cc1nn(-c2cccc(Cl)c2)c2nc(-c3ccco3)cc(C(=O)O)c12,IC50,[3],> 100 µM (active)
same,CC50,[2],> 40 µM (active)
COc1cc2c(C(=O)N3CCN(c4cccc(Cl)c4)CC3)cn(C)c(=O)c2cc1OC,IC50,[4],20.5 µM (inactive)
Clc1ncc(CN2CCN(c3ccccc3)CC2)s1,EC50,[5],92.5 µM (inactive)
same,EC50,[6],815 nM (active)
CCSc1nsc(NC(=O)Nc2ccc(F)cc2F)n1,IC50,[7],> 100 µM (inactive)
same,IC50,[8],39.5 µM (active)
same,IC50,[9],> 100 µM (inactive)
same,CC50,[10],28.3 µM (active)
same,CC50,[11],> 20 µM (active)
same,IC50,[12],13.7 µM (active)
O=[N+]([O-])c1cc2no[n+]([O-])c2cc1N1CCCCC1,IC50,[3],6.38 µM (active)
same,IC50,[13],> 100 µM (active)
same,IC50,[14],31.7 µM (active)
same,CC50,[15],36.9 µM (active)
same,AC50,[16],1.62 µM (active)
same,CC50,[2],27.6 µM (active)
same,CC50,[17],24.7 µM (active)
COc1cccc(C(c2nnnn2-c2ccc3c(c2)OCCO3)N2CCC(n3c(O)nc4ccccc43)CC2)c1OC (stereo unspecified),AC50,[18],3.74 µM (active)
same,AC50,[19],5.67 µM (active)
same,IC50,[4],> 73.4 µM (inactive)
same,AC50,[20],> 70 µM (inactive)
same,AC50,[21],1.52 µM (active)
Cc1cc(C)cc(/N=C/c2ccc([N+](=O)[O-])s2)c1,IC50,[22],14.1 µM (active)
same,AC50,[16],4.15 µM (active)
same,IC50,[23],2.56 µM (active)
C=CCN1CCc2nc(N)sc2CC1 [TALIPEXOLE HYDROCHLORIDE],EC50,[5],92.6 µM (inactive)
same,AC50,[24],6.04 µM (active)
same,EC50,[6],13.7 nM (active)
